# From ChEMBL document CHEMBL6103618, “Discovery of Novel Oxazolo[4,3-f]purine Derivatives as Antitumor Agents through PPIA Interaction” (J Med Chem, 2025)
# Activity calls are given as the source filed them. The calls are words filed in the database; no cut-off is given here.
# Tests used:
# [1] = system: HCT-116; assay: Effect on SET expression in human HCT-116 cells upto 6 uM incubated for 30 mins followed by pronase addition measured after 30 mins by DARTS assay; assay type: functional, cell-based
# [2] = Acute toxicity in BALB/c mouse assessed as death rate at 180 mg/kg, ip measured for 14 days; assay type: organism-based; details: both, in vivo, time 14 day, read-out: Activity
# [3] = Acute toxicity in BALB/c mouse assessed as death rate at 250 mg/kg, ip measured for 14 days; assay type: organism-based; details: both, in vivo, time 14 day, read-out: Activity
# [4] = system: HCT-116; assay: Induction of intracellular ROS generation in human HCT-116 cells incubated for 48 hrs by DHE staining based analysis; assay type: functional, cell-based; details: dose 0.3-1.2 µM
# [5] = system: HCT-116; assay: Induction of apoptosis in human HCT-116 cells assessed as necrotic cells at 1.2 uM incubated for 48 hrs by Annexin V-FITC/PI staining based flow cytometry (reference value: 1.15 %); assay type: functional
# [6] = system: HCT-116; assay: Inhibition of colony formation in human HCT-116 cells harboring siPPIA-3 at 1.2 uM incubated for 48 hrs followed by fresh media replacement without compound on every 72 hrs for 14 days by crystal violet staining based analysis; assay type: functional, cell-based
# [7] = Stability in mouse plasma assessed as half life measured upto 24 hrs by HPLC analysis; assay type: ADME, cell-free
# [8] = system: HCT-116; assay: Induction of ER stress in human HCT-116 cells assessed as increase in CHOP level at 0.3 to 1.2 uM by Western blot analysis; assay type: functional, cell-based; details: dose 0.3-1.2 µM
# [9] = system: HCT-116; assay: Induction of apoptosis in human HCT-116 cells assessed as increase in Bax level at 0.3 to 1.2 uM incubated for 48 hrs by Western blot analysis; assay type: functional, cell-based; details: dose 0.3-1.2 µM
# [10] = system: HCT-116; assay: Inhibition of colony formation in human HCT-116 cells at 1.2 uM in presence of NAC by crystal violet staining based analysis; assay type: functional, cell-based
# [11] = system: HCT-116; assay: Induction of cell cycle arrest in human HCT-116 cells assessed as accumulation at S phase at 0.3 uM incubated for 48 hrs by PI staining based flow cytometry (reference value: 34.55 %); assay type: functional
# [12] = system: HCT-116; assay: Induction of apoptosis in human HCT-116 cells harboring siNC assessed as necrotic cells at 1.2 uM by Annexin V-FITC/PI staining based flow cytometry (reference value: 0.21 %); assay type: functional
# [13] = system: HCT-116; assay: Induction of intracellular ROS generation in human HCT-116 cells harboring siNC at 1.2 uM by flow cytometry (reference value: 8.22 %); assay type: functional
# [14] = Toxicity in BALB/c mouse implanted with mouse CT26 cells assessed as abnormality in heart at 15 to 45 mg/kg, ip qd treated for 14 days by H and E staining based analysis; assay type: organism-based; details: in vivo, 336 h, dose 15-45 mg/kg, time 14 day
# [15] = system: HCT-116; assay: Effect on COTL1 expression in human HCT-116 cells upto 6 uM incubated for 30 mins followed by pronase addition measured after 30 mins by DARTS assay; assay type: functional, cell-based
# [16] = Toxicity in BALB/c mouse implanted with mouse CT26 cells assessed as abnormality in spleen at 15 to 45 mg/kg, ip qd treated for 14 days by H and E staining based analysis; assay type: organism-based; details: in vivo, 336 h, dose 15-45 mg/kg, time 14 day
# [17] = system: HCT-116; assay: Induction of DNA damage in human HCT-116 cells assessed as increase in gamma-H2AX level at 0.3 to 1.2 uM incubated for 48 hrs by Western blot analysis; assay type: functional, cell-based; details: dose 0.3-1.2 µM
# [18] = system: HCT-116; assay: Induction of apoptosis in human HCT-116 cells assessed as late apoptotic cells at 1.2 uM incubated for 48 hrs by Annexin V-FITC/PI staining based flow cytometry (reference value: 1.55 %); assay type: functional
# [19] = system: HCT-116; assay: Induction of DNA damage in human HCT-116 cells assessed as increase in orange fluorescence incubated for 48 hrs by AO staining based analysis; assay type: functional, cell-based; details: dose 0.3-1.2 µM
# [20] = system: HCT-116; assay: Induction of apoptosis in human HCT-116 cells harboring siPPIA-3 assessed as necrotic cells at 1.2 uM by Annexin V-FITC/PI staining based flow cytometry (reference value: 0.87 %); assay type: functional
# [21] = species on record: Homo sapiens; assay: Disruption of PPIA/CD147 (unknown origin) interaction by Co-IP assay
# [22] = system: HCT-116; assay: Induction of cell cycle arrest in human HCT-116 cells assessed as accumulation at G1 phase at 0.3 uM incubated for 48 hrs by PI staining based flow cytometry (reference value: 59.37 %); assay type: functional
# [23] = Acute toxicity in BALB/c mouse assessed as death rate at 700 mg/kg, ip measured for 14 days; assay type: organism-based; details: both, in vivo, time 14 day, read-out: Activity
# [24] = system: HCT-116; assay: Induction of apoptosis in human HCT-116 cells assessed as necrotic cells at 0.3 uM incubated for 48 hrs by Annexin V-FITC/PI staining based flow cytometry (reference value: 1.15 %); assay type: functional
# [25] = system: HCT-116; assay: Anti-proliferative activity against human HCT-116 cells harboring siPPIA-3 assessed as decrease in p-JNK level at 1.2 uM by Western blot analysis; assay type: functional, cell-based
# [26] = system: HeLa; assay: Antiproliferative activity against human HeLa cells assessed as inhibition of cell viability incubated for 48 hrs by CCK8 assay; assay type: functional, cell-based
# [27] = system: HCT-116; assay: Antiproliferative activity against human HCT-116 cells at 0.3 to 1.2 uM incubated for 48 hrs by EdU uptake assay; assay type: functional, cell-based; details: dose 0.3-1.2 µM
# [28] = system: HCT-116; assay: Induction of apoptosis in human HCT-116 cells assessed as necrotic cells at 0.6 uM incubated for 48 hrs by Annexin V-FITC/PI staining based flow cytometry (reference value: 1.15 %); assay type: functional
# [29] = system: HCT-116; assay: Induction of apoptosis in human HCT-116 cells assessed as viable cells at 0.6 uM incubated for 48 hrs by Annexin V-FITC/PI staining based flow cytometry (reference value: 96.2 %); assay type: functional; details: read-out: Activity
# [30] = Toxicity in BALB/c mouse implanted with mouse CT26 cells assessed as change in body weight at 15 to 45 mg/kg, ip qd treated for 14 days; assay type: organism-based; details: in vivo, 336 h, dose 15-45 mg/kg, time 14 day
# [31] = system: HCT-116; assay: Induction of apoptosis in human HCT-116 cells assessed as increase in p53 level at 1.2 uM in presence of NAC by Western blot analysis; assay type: functional, cell-based
# [32] = system: HCT-116; assay: Inhibition of cell viability in human HCT-116 cells at 0.3 to 1.2 uM incubated for 48 hrs in presence of NAC; assay type: functional, cell-based; details: dose 0.3-1.2 µM
# [33] = system: HCT-116; assay: Induction of mitochondrial dysfunction in human HCT-116 cells assessed as decrease in ATP6 level at 0.3 to 1.2 uM by Western blot analysis; assay type: functional, cell-based; details: dose 0.3-1.2 µM
# [34] = system: HCT-116; assay: Induction of apoptosis in human HCT-116 cells assessed as early apoptotic cells at 0.6 uM incubated for 48 hrs by Annexin V-FITC/PI staining based flow cytometry (reference value: 1.12 %); assay type: functional
# [35] = system: CT26; assay: Antitumor activity against mouse CT26 cells implanted in BALB/c mouse assessed as reduction in tumor weight administered intraperitoneally once daily for 14 days; assay type: functional; details: dose 15-45 mg/kg, route ip, time 14.0 day
# [36] = system: HCT-116; assay: Anti-proliferative activity against human HCT-116 cells harboring siPPIA-3 assessed as decrease in p-p38 level at 1.2 uM by Western blot analysis; assay type: functional, cell-based
# [37] = molecular target: Peptidyl-prolyl cis-trans isomerase A (Homo sapiens, UniProt P62937); assay: Binding affinity to PPIA (unknown origin) at 2 uM preincubated for 30 mins followed by Proteinase K addition measured after 10 mins by LiP-SMap analysis
# Peptidyl-prolyl cis-trans isomerase A, sequence (P62937 whole entry, looked up): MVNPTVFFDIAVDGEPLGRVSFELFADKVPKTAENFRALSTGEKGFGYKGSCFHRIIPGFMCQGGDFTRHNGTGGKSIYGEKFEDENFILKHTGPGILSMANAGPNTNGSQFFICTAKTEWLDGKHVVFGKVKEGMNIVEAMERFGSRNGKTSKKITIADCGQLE
smiles,measurement,setting,value
C=C(C(=O)OC)N1c2nc(Cl)nc(Cl)c2N2C(c3ccccc3F)OC(C(=O)OCC)(C(=O)OCC)C12 (racemic),Activity,[1],No effect
same,mortality at 336 h,[2],0%
same,mortality at 336 h,[3],10%
same,Activity,[4],Dose-dependent-effect
same,Activity,[5],2.4%
same,inhibition,[6],inactive
same,half-life,[7],287 min
same,Activity,[8],Active
same,Activity,[9],Active
same,inhibition,[10],inactive
same,Activity,[11],27.89%
same,Activity,[12],0.57%
same,Activity,[13],22.9%
same,Activity,[14],Non-toxic
same,Activity,[15],No effect
same,Activity,[16],Non-toxic
same,Activity,[17],Active
same,Activity,[18],8.35%
same,Activity,[19],Dose-dependent-effect
same,Activity,[20],1.09%
same,Activity,[21],Active
same,Activity,[22],65.85%
same,mortality at 336 h,[23],100%
same,Activity,[24],1.8%
same,Activity,[25],inactive
same,IC50,[26],690 nM
same,Activity,[27],Active
same,Activity,[28],2.12%
same,viability at 0.6 µM,[29],77.5%
same,Activity,[30],Non-toxic
same,Activity,[31],inactive
same,inhibition,[32],inactive
same,Activity,[33],Active
same,Activity,[34],14.8%
same,Activity,[35],Dose-dependent-effect
same,Activity,[36],inactive
same,Activity,[37],Active
